Data as given in patent US20250353891A1 (MEDIMMUNE LIMITED, priority 2022, published 2025).
Starred links: 1 amine or outer side, 2 acyl side, 3 side chain; linkers in the order of their positions; H or OH if unused. Non-standard residues stand in square brackets, D forms with d. Residues, ends and D or L forms follow the SMILES beside them. Groups on a side chain read outwards from the residue. *: point of attachment. C20 diacid = O=C(O)CCCCCCCCCCCCCCCCCCC(=O)*; C18 diacid = O=C(O)CCCCCCCCCCCCCCCCC(=O)*; γGlu = O=C(O)[C@H](CCC(=O)[*:2])N[*:1]; αMeF = C[C@](N)(Cc1ccccc1)C(=O)O; AEEA = NCCOCCOCC(=O)O; Aib = CC(C)(N)C(=O)O

Tests used:
[1] = biological target: human GLP-1 receptor (hGLP-1R) (Homo sapiens, UniProt P43220); experiment: cAMP production (HTRF) in CHO cells expressing hGLP-1R; type: cell-based; parameters: expressed in transfected cells; conditions: for EC50: Table 6, peptides modified at position 17, cAMP in CHO hGLP-1R cells, geometric mean, read-out: hGLP-1R EC50; for % Relative Potency Ratio: Table 6, % GLP-1R activity relative to GLP-1 / % GlucR activity relative to glucagon
Chain of human GLP-1 receptor (hGLP-1R) (P43220 24-463): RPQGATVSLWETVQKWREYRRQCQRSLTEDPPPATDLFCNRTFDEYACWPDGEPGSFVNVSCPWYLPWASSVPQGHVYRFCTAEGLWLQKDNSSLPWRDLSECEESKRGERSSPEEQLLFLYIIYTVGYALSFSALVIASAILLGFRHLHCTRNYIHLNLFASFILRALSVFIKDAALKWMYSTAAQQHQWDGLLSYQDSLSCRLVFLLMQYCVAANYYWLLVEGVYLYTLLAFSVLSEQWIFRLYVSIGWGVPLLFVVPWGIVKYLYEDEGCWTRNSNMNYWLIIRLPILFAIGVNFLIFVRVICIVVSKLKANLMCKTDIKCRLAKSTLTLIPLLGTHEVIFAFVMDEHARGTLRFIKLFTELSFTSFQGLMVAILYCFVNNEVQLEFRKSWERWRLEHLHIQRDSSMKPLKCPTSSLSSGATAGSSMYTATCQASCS
Summary of the method: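 Cells were resuspended in assay buffer at batch-optimized density, typically 1×10^5 cells/mL for hGLP-1R and 2×10^5 cells/mL for hGCGR. After 30 min incubation at room temperature with compound, cAMP was measured by two-step HTRF. EC50 values came from 4-parameter logistic fits of % Delta F.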

[2] = biological target: human glucagon receptor (hGCGR) (Homo sapiens, UniProt P47871); experiment: cAMP production (HTRF) in CHO cells expressing hGCGR; type: cell-based; parameters: expressed in transfected cells; conditions: Table 6, peptides modified at position 17; cAMP in CHO hGCGR cells; geometric mean; read-out: hGluc-R EC50
Chain of human glucagon receptor (hGCGR) (P47871 26-477): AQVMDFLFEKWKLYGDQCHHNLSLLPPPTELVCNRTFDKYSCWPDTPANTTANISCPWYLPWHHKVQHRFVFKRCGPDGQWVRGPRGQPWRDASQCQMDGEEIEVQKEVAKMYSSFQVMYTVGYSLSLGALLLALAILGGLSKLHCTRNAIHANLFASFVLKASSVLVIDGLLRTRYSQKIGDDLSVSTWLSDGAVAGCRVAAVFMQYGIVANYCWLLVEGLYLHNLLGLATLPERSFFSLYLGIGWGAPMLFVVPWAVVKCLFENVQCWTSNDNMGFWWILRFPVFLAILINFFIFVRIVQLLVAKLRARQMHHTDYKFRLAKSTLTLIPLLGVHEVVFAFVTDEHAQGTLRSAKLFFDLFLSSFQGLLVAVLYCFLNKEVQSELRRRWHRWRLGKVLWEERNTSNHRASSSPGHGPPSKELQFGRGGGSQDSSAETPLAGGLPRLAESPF
Protocol: Cells were re-suspended in assay buffer at a batch-dependent optimized concentration (typically hGLP-1R cells at 1×10^5 cells/mL, hGCGR cells at 2×10^5 cells/mL).
Cells were added to the assay plate using a multidrop dispenser and incubated at room temperature for 30 minutes before measuring the cAMP level using a cAMP dynamic 2 homogeneous time resolved Fluorescence (HTRF) kit (Cisbio Bioassays #62AM4PEJ) following the two-step protocol as per manufacturer's recommendations. In brief, anti-cAMP cryptate (donor fluorophore) and cAMP-d2 (acceptor fluorophore) were made up separately by diluting each 1 in 20 in conjugate and lysis buffer provided in the kit. Anti-CAMP cryptate was added to all wells of the assay plate, followed by cAMP-d2 added to all wells except non-specific binding (NSB) wells (to which conjugate and lysis buffer was added).
Data was transformed to % Delta F as described in the manufacturer's guidelines and analyzed by 4-parameter logistic fit to determine EC50 values.

EC50 [1] | % Relative Potency Ratio [1] | EC50 [2] | Compound
0.045 nM | 5.9 | 0.135 nM | CC[C@H](C)[C@H](NC(=O)[C@H](CO)NC(=O)[C@H](CCC(=O)O)NC(=O)[C@@H](NC(=O)[C@](C)(Cc1ccccc1)NC(=O)[C@H](CC(=O)O)NC(=O)[C@H](CCCNC(=N)N)NC(=O)[C@H](C)NC(=O)[C@H](C)NC(=O)[C@H](CCCCNC(=O)COCCOCCNC(=O)COCCOCCNC(=O)CC[C@H](NC(=O)CCCCCCCCCCCCCCCCC(=O)O)C(=O)O)NC(=O)[C@H](CO)NC(=O)[C@H](CC(=O)O)NC(=O)[C@H](CC(C)C)NC(=O)[C@](C)(Cc1ccccc1)NC(=O)[C@H](CCCCN)NC(=O)[C@H](CO)NC(=O)[C@@H](NC(=O)[C@H](CC(=O)O)NC(=O)[C@H](CO)NC(=O)[C@@H](NC(=O)[C@](C)(Cc1ccccc1)NC(=O)[C@H](CO)NC(=O)CNC(=O)[C@H](Cc1c[nH]cn1)NC(=O)C(C)(C)NC(=O)[C@@H](N)Cc1c[nH]cn1)[C@@H](C)O)C(C)C)C(C)C)C(=O)N[C@@H](C)C(=O)N[C@@H](CC(N)=O)C(=O)N[C@H](C(N)=O)[C@@H](C)O [Peptide 17] (H-H[Aib]HGS[αMeF]TSDVSK[αMeF]LDSK([AEEA-AEEA-γGlu-C18 diacid])AARD[αMeF]VESIANT-NH2; N-terminus assumed)
0.0205 nM | 11.7 | 0.122 nM | CC[C@H](C)[C@H](NC(=O)[C@H](CO)NC(=O)[C@H](CCC(N)=O)NC(=O)[C@@H](NC(=O)[C@](C)(Cc1ccccc1)NC(=O)[C@H](CC(=O)O)NC(=O)[C@H](CCCNC(=N)N)NC(=O)[C@H](C)NC(=O)[C@H](C)NC(=O)[C@H](CCCCNC(=O)COCCOCCNC(=O)COCCOCCNC(=O)CC[C@H](NC(=O)CCCCCCCCCCCCCCCCC(=O)O)C(=O)O)NC(=O)[C@H](CO)NC(=O)[C@H](CC(=O)O)NC(=O)[C@H](CC(C)C)NC(=O)[C@](C)(Cc1ccccc1)NC(=O)[C@H](CCCCN)NC(=O)[C@H](CO)NC(=O)[C@@H](NC(=O)[C@H](CC(=O)O)NC(=O)[C@H](CO)NC(=O)[C@@H](NC(=O)[C@](C)(Cc1ccccc1)NC(=O)[C@H](CO)NC(=O)CNC(=O)[C@H](Cc1c[nH]cn1)NC(=O)C(C)(C)NC(=O)[C@@H](N)Cc1c[nH]cn1)[C@@H](C)O)C(C)C)C(C)C)C(=O)N[C@@H](C)C(=O)N[C@@H](CC(N)=O)C(=O)N[C@H](C(N)=O)[C@@H](C)O [Peptide 18] (H-H[Aib]HGS[αMeF]TSDVSK[αMeF]LDSK([AEEA-AEEA-γGlu-C18 diacid])AARD[αMeF]VQSIANT-NH2; N-terminus assumed)
0.0383 nM | 6.9 | 0.133 nM | CC[C@H](C)[C@H](NC(=O)C(C)(C)NC(=O)[C@H](CCC(N)=O)NC(=O)[C@@H](NC(=O)[C@](C)(Cc1ccccc1)NC(=O)[C@H](CC(=O)O)NC(=O)[C@H](CCCNC(=N)N)NC(=O)[C@H](C)NC(=O)[C@H](C)NC(=O)[C@H](CCCCNC(=O)COCCOCCNC(=O)COCCOCCNC(=O)CC[C@H](NC(=O)CC[C@H](NC(=O)CCCCCCCCCCCCCCCCC(=O)O)C(=O)O)C(=O)O)NC(=O)[C@H](CO)NC(=O)[C@H](CC(=O)O)NC(=O)[C@H](CC(C)C)NC(=O)[C@](C)(Cc1ccccc1)NC(=O)[C@H](CCCCN)NC(=O)[C@H](CO)NC(=O)[C@@H](NC(=O)[C@H](CC(=O)O)NC(=O)[C@H](CO)NC(=O)[C@@H](NC(=O)[C@](C)(Cc1ccccc1)NC(=O)[C@H](CO)NC(=O)CNC(=O)[C@H](Cc1c[nH]cn1)NC(=O)C(C)(C)NC(=O)[C@@H](N)Cc1c[nH]cn1)[C@@H](C)O)C(C)C)C(C)C)C(=O)N[C@@H](C)C(=O)N[C@@H](CC(N)=O)C(=O)N[C@H](C(N)=O)[C@@H](C)O [Peptide 19] (H-H[Aib]HGS[αMeF]TSDVSK[αMeF]LDSK([AEEA-AEEA-γGlu-γGlu-C18 diacid])AARD[αMeF]VQ[Aib]IANT-NH2; N-terminus assumed)

Further lines, the compound ahead of its results:

Compound | EC50 [1] | % Relative Potency Ratio [1] | EC50 [2]
CC[C@H](C)[C@H](NC(=O)C(C)(C)NC(=O)[C@H](CCC(N)=O)NC(=O)[C@@H](NC(=O)[C@](C)(Cc1ccccc1)NC(=O)[C@H](CC(=O)O)NC(=O)[C@H](CCCNC(=N)N)NC(=O)[C@H](C)NC(=O)[C@H](C)NC(=O)[C@H](CCCCNC(=O)COCCOCCNC(=O)COCCOCCNC(=O)CC[C@H](NC(=O)CC[C@H](NC(=O)CCCCCCCCCCCCCCCCCCC(=O)O)C(=O)O)C(=O)O)NC(=O)[C@H](CO)NC(=O)[C@H](CC(=O)O)NC(=O)[C@H](CC(C)C)NC(=O)[C@](C)(Cc1ccccc1)NC(=O)[C@H](CCCCN)NC(=O)[C@H](CO)NC(=O)[C@@H](NC(=O)[C@H](CC(=O)O)NC(=O)[C@H](CO)NC(=O)[C@@H](NC(=O)[C@](C)(Cc1ccccc1)NC(=O)[C@H](CO)NC(=O)CNC(=O)[C@H](Cc1c[nH]cn1)NC(=O)C(C)(C)NC(=O)[C@@H](N)Cc1c[nH]cn1)[C@@H](C)O)C(C)C)C(C)C)C(=O)N[C@@H](C)C(=O)N[C@@H](CC(N)=O)C(=O)N[C@H](C(N)=O)[C@@H](C)O [Peptide 14] (H-H[Aib]HGS[αMeF]TSDVSK[αMeF]LDSK([AEEA-AEEA-γGlu-γGlu-C20 diacid])AARD[αMeF]VQ[Aib]IANT-NH2; N-terminus assumed) | 0.0938 nM | 9.7 | 0.462 nM
CC[C@H](C)[C@H](NC(=O)C(C)(C)NC(=O)[C@H](C)NC(=O)[C@@H](NC(=O)[C@](C)(Cc1ccccc1)NC(=O)[C@H](CC(=O)O)NC(=O)[C@H](CCCNC(=N)N)NC(=O)[C@H](C)NC(=O)[C@H](C)NC(=O)[C@H](CCCCNC(=O)COCCOCCNC(=O)COCCOCCNC(=O)CC[C@H](NC(=O)CCCCCCCCCCCCCCCCC(=O)O)C(=O)O)NC(=O)[C@H](CO)NC(=O)[C@H](CC(=O)O)NC(=O)[C@H](CC(C)C)NC(=O)[C@](C)(Cc1ccccc1)NC(=O)[C@H](CCCCN)NC(=O)[C@H](CO)NC(=O)[C@@H](NC(=O)[C@H](CC(=O)O)NC(=O)[C@H](CO)NC(=O)[C@@H](NC(=O)[C@](C)(Cc1ccccc1)NC(=O)[C@H](CO)NC(=O)CNC(=O)[C@H](Cc1c[nH]cn1)NC(=O)C(C)(C)NC(=O)[C@@H](N)Cc1c[nH]cn1)[C@@H](C)O)C(C)C)[C@@H](C)CC)C(=O)N[C@@H](C)C(=O)N[C@@H](CC(N)=O)C(=O)N[C@H](C(N)=O)[C@@H](C)O [Peptide 16] (H-H[Aib]HGS[αMeF]TSDVSK[αMeF]LDSK([AEEA-AEEA-γGlu-C18 diacid])AARD[αMeF]IA[Aib]IANT-NH2; N-terminus assumed) | 0.033 nM | 6.3 | 0.105 nM
CC[C@H](C)[C@H](NC(=O)C(C)(C)NC(=O)[C@H](CCC(=O)O)NC(=O)[C@@H](NC(=O)[C@](C)(Cc1ccccc1)NC(=O)[C@H](CC(=O)O)NC(=O)[C@H](CCCNC(=N)N)NC(=O)[C@H](C)NC(=O)[C@H](C)NC(=O)[C@H](CCCCNC(=O)COCCOCCNC(=O)COCCOCCNC(=O)CC[C@H](NC(=O)CC[C@H](NC(=O)CCCCCCCCCCCCCCCCC(=O)O)C(=O)O)C(=O)O)NC(=O)[C@H](CO)NC(=O)[C@H](CC(=O)O)NC(=O)[C@H](CC(C)C)NC(=O)[C@](C)(Cc1ccccc1)NC(=O)[C@H](CCCCN)NC(=O)[C@H](CO)NC(=O)[C@@H](NC(=O)[C@H](CC(=O)O)NC(=O)[C@H](CO)NC(=O)[C@@H](NC(=O)[C@](C)(Cc1ccccc1)NC(=O)[C@H](CO)NC(=O)CNC(=O)[C@H](Cc1c[nH]cn1)NC(=O)C(C)(C)NC(=O)[C@@H](N)Cc1c[nH]cn1)[C@@H](C)O)C(C)C)C(C)C)C(=O)N[C@@H](C)C(=O)N[C@@H](CC(N)=O)C(=O)N[C@H](C(N)=O)[C@@H](C)O [Peptide 20] (H-H[Aib]HGS[αMeF]TSDVSK[αMeF]LDSK([AEEA-AEEA-γGlu-γGlu-C18 diacid])AARD[αMeF]VE[Aib]IANT-NH2; N-terminus assumed) | 0.152 nM | 1.8 | 0.136 nM
CC[C@H](C)[C@H](NC(=O)[C@H](CO)NC(=O)[C@H](CCC(=O)O)NC(=O)[C@@H](NC(=O)[C@](C)(Cc1ccccc1)NC(=O)[C@H](CC(=O)O)NC(=O)[C@H](CCC(N)=O)NC(=O)[C@H](C)NC(=O)[C@H](C)NC(=O)[C@H](CCCCNC(=O)CC[C@H](NC(=O)CCCCCCCCCCCCCCCCC(=O)O)C(=O)O)NC(=O)[C@H](CO)NC(=O)[C@H](CC(=O)O)NC(=O)[C@H](CC(C)C)NC(=O)[C@](C)(Cc1ccccc1)NC(=O)[C@H](CCCCN)NC(=O)[C@H](CO)NC(=O)[C@@H](NC(=O)[C@H](CC(=O)O)NC(=O)[C@H](CO)NC(=O)[C@@H](NC(=O)[C@](C)(Cc1ccccc1)NC(=O)[C@H](CO)NC(=O)CNC(=O)[C@H](Cc1c[nH]cn1)NC(=O)C(C)(C)NC(=O)[C@@H](N)Cc1c[nH]cn1)[C@@H](C)O)C(C)C)C(C)C)C(=O)N[C@@H](C)C(=O)N[C@@H](CC(N)=O)C(=O)N[C@H](C(N)=O)[C@@H](C)O [Peptide 21] (H-H[Aib]HGS[αMeF]TSDVSK[αMeF]LDSK([γGlu-C18 diacid])AAQD[αMeF]VESIANT-NH2; N-terminus assumed) | 0.378 nM | 0.4 | 0.0688 nM
